Experimental findings from patent US10457707B2, “Substituted urea depsipeptide analogs as activators of the CLPP endopeptidase” (priority 2015, dated 2019) are described below.

Molecules are shown by their SMILES. Converted amounts (≈) assume the structure as drawn. Like-named read-outs stand apart in the source and are kept apart here. *1 amine or outer side, *2 acyl side, *3 side chain or, on linkers, in order; H or OH if unused. Where a SMILES comes first, the peptide text is derived from it. Bridges are numbered along the chain shown (N, C = ends). [ ]: non-standard residue; d: D form. The star is where a group is joined. ξ: configuration not given here. Phe(3,5-F2) = N[C@@H](Cc1cc(F)cc(F)c1)C(=O)O; NH(1-Me-indolin-5-yl) = CN1CCc2cc(N*)ccc21; Morpholine(3S-CO) = O=C(O)[C@@H]1COCCN1; Pro(4S-Me) = C[C@@H]1CN[C@H](C(=O)O)C1; NH(4-Cl-2-F-phenyl) = Fc1cc(Cl)ccc1N*; Pro(4R-Me) = C[C@H]1CN[C@H](C(=O)O)C1; Hyp = O=C(O)[C@@H]1C[C@@H](O)CN1; NMeT = CN[C@H](C(=O)O)[C@@H](C)O; Heptenoyl(2E) = CCCC/C=C/C(=O)*; NH(4-Me-phenyl) = Cc1ccc(N*)cc1; ξNMeThr = CNC(C(=O)O)[C@@H](C)O; aThr = C[C@H](O)[C@H](N)C(=O)O; Pip = O=C(O)[C@@H]1CCCCN1; NMeA = CN[C@@H](C)C(=O)O; X4 = c1cc2c(cc1N*)CCC2; X8 = c1cc2c(cc1N*)CCO2; X6 = Cc1cc(C)cc(N*)c1; CO = O=C([*:1])[*:2]; X7 = CC/C=C/C(=O)*

The target in assay [1] is T1, Sa-ClpP (Staphylococcus aureus, UniProt Q2G036).
T1 construct: made in house; host or cells: E. coli BL21(DE3)
T1 sequence (Q2G036 1-195): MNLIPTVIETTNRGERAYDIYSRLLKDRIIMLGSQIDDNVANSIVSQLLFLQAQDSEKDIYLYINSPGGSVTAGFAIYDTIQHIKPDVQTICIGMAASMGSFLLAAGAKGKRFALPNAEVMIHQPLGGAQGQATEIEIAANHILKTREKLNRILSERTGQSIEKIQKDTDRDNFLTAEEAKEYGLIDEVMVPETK
Put plainly: Sa-ClpP casein-BODIPY ClpP activation assay, method variant not marked in Table 5. The format is biochemical, S. aureus. A digest of the protocol:
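Purified S. aureus ClpP (10 μM) incubated with 25 μg/ml BODIPY FL casein and compound (0-1000 μM) in pH 8 Tris/KCl/TCEP at 37° C. Fluorescence (485/528 nm) read every 5 min over 45 min; reaction velocities fitted to dose-response for EC50 (50% activation), triplicate.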

For assay [2], the system named is Enterococcus faecalis, ATCC 33186. Put plainly: Minimal inhibitory concentration assay (microbroth dilution). It is filed as cell-based. Summed up:
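CLSI broth microdilution: two-fold compound dilutions from 200 μM final, ~10^5 cfu/mL inoculum, aerobic overnight incubation at 37 °C. MIC read visually as lowest concentration preventing growth; S. aureus USA 300 compared with its ClpP-inactivated counterpart to check ClpP dependence.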
In general terms: Dilution methods test growth across graded concentrations, often in twofold steps.

[3] abbreviates: values without ** or † mark, assay variant not stated, read-out: ClpP Activation EC50.
Where [4] appears, read: Enterococcus faecalis, ATCC33186, read-out: Minimal Inhibitory Concentrations E. faecalis ATCC 33186.
The mark [5] stands for this setting: Enterococcus faecalis, ATCC33186; read-out: Minimal Inhibitory Concentrations E. faecalis ATCC 33186.

With `Cc1ccc(NC(=O)N[C@@H](Cc2cc(F)cc(F)c2)C(=O)N[C@H]2COC(=O)[C@@H]3C[C@@H](C)CN3C(=O)[C@H](C)NC(=O)[C@@H]3CCCCN3C(=O)[C@@H]3CCCN3C2=O)cc1C` [Compound 207, (S)-3-(3,5-difluorophenyl)-N-((2R,6S,8aS,14aS,20S,23aS)-2,6-dimethyl-5,8,14,19,23-pentaoxooctadecahydro-1H,5H,14H,19H-pyrido[2,1-i]dipyrrolo[2,1-c:2′,1′-l][1]oxa[4,7,10,13]tetraazacyclohexadecin-20-yl)-2-(3-(3,4-dimethylphenyl)ureido)propanamide], the EC50 in assay [1] (setting [3]) came out at 8.3 ± 1.9 µM. Also, in assay [2] (setting [4]), the MIC is below 0.2 µM.

With `Cc1ccc(NC(=O)N[C@@H](Cc2cc(F)cc(F)c2)C(=O)N[C@@H]2C(=O)N3C[C@H](O)C[C@H]3C(=O)N(C)[C@@H](C)C(=O)N[C@@H](C)C(=O)N3C[C@@H](C)C[C@H]3C(=O)O[C@H]2C)cc1` [Compound 214, (S)-3-(3,5-difluorophenyl)-N-((2S,6S,9S,11aS,13R,17S,18S,20aS)-13-hydroxy-2,6,9,10,18-pentamethyl-5,8,11,16,20-pentaoxohexadecahydro-1H,5H,16H-dipyrrolo[2,1-c:2′,1′-l][1]oxa[4,7,10,13]tetraazacyclohexadecin-17-yl)-2-(3-(p-tolyl)ureido)propanamide] ({NH(4-Me-phenyl)-CO}-[Phe(3,5-F2)][aThr][Hyp][NMeA]A[Pro(4S-Me)]; ester 2-C), the EC50 in assay [1] (setting [3]) is 1.28 ± 0.03 µM. For the same compound, the MIC in assay [2] (setting [4]) was found to be 0.195 µM (≈ 0.156 µg/mL).

As for `CC/C=C/C(=O)N[C@@H](Cc1cc(F)cc(F)c1)C(=O)N[C@@H]1C(=O)N2C[C@H](O)C[C@H]2C(=O)N2CCCC[C@H]2C(=O)N[C@@H](C)C(=O)N2C[C@H](C)C[C@H]2C(=O)O[C@H]1C` [Compound 300] (X7-[Phe(3,5-F2)][aThr][Hyp][Pip]A[Pro(4R-Me)]; ester 2-C), in assay [1] (setting [3]), the EC50 came to 0.44 ± 0.03 µM. In addition, the MIC in assay [2] (setting [4]) was determined as 0.039 µM (≈ 0.0301 µg/mL).

For the compound `CCCC/C=C/C(=O)N[C@@H](Cc1cc(F)cc(F)c1)C(=O)N[C@@H]1C(=O)N2C[C@H](O)C[C@H]2C(=O)N2CCCC[C@H]2C(=O)N[C@@H](C)C(=O)N2C[C@H](C)C[C@H]2C(=O)O[C@H]1C` [Compound 301, (E)-N—((S)-3-(3,5-difluorophenyl)-1-(((2R,6S,8aS,14aS,16R,20S,21S,23aS)-16-hydroxy-2,6,21-trimethyl-5,8,14,19,23-pentaoxooctadecahydro-1H,5H,14H,19H-pyrido[2,1-i]dipyrrolo[2,1-c:2′,1′-l][1]oxa[4,7,10,13]tetraazacyclohexadecin-20-yl)amino)-1-oxopropan-2-yl)hept-2-enamide] ({Heptenoyl(2E)}-[Phe(3,5-F2)][aThr][Hyp][Pip]A[Pro(4R-Me)]; ester 2-C), the EC50 in assay [1] (setting [3]) is 0.42 ± 0.01 µM. Moreover, the MIC in assay [2] (setting [4]) was below 0.0098 µM.

Consider `C[C@@H]1C[C@H]2C(=O)O[C@@H](C)[C@H](NC(=O)[C@H](Cc3cc(F)cc(F)c3)NC(=O)Nc3ccc4c(c3)CCC4)C(=O)N3CCC[C@H]3C(=O)N3CCCC[C@H]3C(=O)N[C@@H](C)C(=O)N2C1` [Compound 302, (S)-3-(3,5-difluorophenyl)-2-(3-(2,3-dihydro-1H-INDEN-5-yl)ureido)-N-((2R,6S,8aS,14aS,20S,21S,23aS)-2,6,21-trimethyl-5,8,14,19,23-pentaoxooctadecahydro-1H,5H,14H,19H-pyrido[2,1-i]dipyrrolo[2,1-c:2′,1′-l][1]oxa[4,7,10,13]tetraazacyclohexadecin-20-yl)propanamide] ({X4-CO}-[Phe(3,5-F2)][aThr]P[Pip]A[Pro(4R-Me)]; ester 2-C), for which the EC50 in assay [1] (setting [3]) turned out to be 0.48 ± 0.01 µM. Also, the MIC in assay [2] (setting [4]) is 0.02 µM (≈ 0.0167 µg/mL).

`Cc1cc(C)cc(NC(=O)N[C@@H](Cc2cc(F)cc(F)c2)C(=O)N[C@@H]2C(=O)N3CCC[C@H]3C(=O)N3CCCC[C@H]3C(=O)N[C@@H](C)C(=O)N3C[C@H](C)C[C@H]3C(=O)O[C@H]2C)c1` [Compound 304, (S)-3-(3,5-difluorophenyl)-2-(3-(3,5-dimethylphenyl)ureido)-N-((2R,6S,8aS,14aS,20S,21S,23aS)-2,6,21-trimethyl-5,8,14,19,23-pentaoxooctadecahydro-1H,5H,14H,19H-pyrido[2,1-i]dipyrrolo[2,1-c:2′,1′-l][1]oxa[4,7,10,13]tetraazacyclo-hexadecin-20-yl)propanamide] ({X6-CO}-[Phe(3,5-F2)][aThr]P[Pip]A[Pro(4R-Me)]; ester 2-C) had an EC50 in assay [1] of 0.38 ± 0.01 µM. For the same compound, in assay [2] (setting [5]), the MIC was 0.029 µM (≈ 0.0238 µg/mL).

`C[C@@H]1C[C@H]2C(=O)O[C@@H](C)[C@H](NC(=O)[C@H](Cc3cc(F)cc(F)c3)NC(=O)Nc3ccc4c(c3)CCO4)C(=O)N3CCC[C@H]3C(=O)N3CCCC[C@H]3C(=O)N[C@@H](C)C(=O)N2C1` [Compound 305, (S)-3-(3,5-difluorophenyl)-2-(3-(2,3-dihydrobenzofuran-5-yl)ureido)-N-((2R,6S,8aS,14aS,20S,21S,23aS)-2,6,21-trimethyl-5,8,14,19,23-pentaoxooctadecahydro-1H,5H,14H,19H-pyrido[2,1-i]dipyrrolo[2,1-c:2′,1′-l][1]oxa[4,7,10,13]tetraazacyclo-hexadecin-20-yl)propanamide] ({X8-CO}-[Phe(3,5-F2)][aThr]P[Pip]A[Pro(4R-Me)]; ester 2-C): the EC50 in assay [1] (setting [3]) turned out to be 0.48 ± 0.02 µM. Also, the MIC in assay [2] (setting [4]) stood at 0.029 µM (≈ 0.0242 µg/mL).

Take `C[C@@H]1C[C@H]2C(=O)O[C@@H](C)[C@H](NC(=O)[C@H](Cc3cc(F)cc(F)c3)NC(=O)Nc3ccc(Cl)cc3F)C(=O)N3CCC[C@H]3C(=O)N3CCCC[C@H]3C(=O)N[C@@H](C)C(=O)N2C1` [Compound 307, (S)-2-(3-(4-chloro-2-fluorophenyl)ureido)-3-(3,5-difluorophenyl)-N-((2R,6S,8aS,14aS,20S,21S,23aS)-2,6,21-trimethyl-5,8,14,19,23-pentaoxooctadecahydro-1H,5H,14H,19H-pyrido[2,1-i]dipyrrolo[2,1-c:2′,1′-l][1]oxa[4,7,10,13]tetraazacyclo-hexadecin-20-yl)propanamide] ({NH(4-Cl-2-F-phenyl)-CO}-[Phe(3,5-F2)][aThr]P[Pip]A[Pro(4R-Me)]; ester 2-C): in assay [1], the EC50 came to 0.44 ± 0.03 µM. The MIC in assay [2] (setting [5]) is below 0.02 µM.

Consider `CCCC/C=C/C(=O)N[C@@H](Cc1cc(F)cc(F)c1)C(=O)N[C@@H]1C(=O)N2CCC[C@H]2C(=O)N(C)[C@@H]([C@@H](C)O)C(=O)N[C@@H](C)C(=O)N2C[C@H](C)C[C@H]2C(=O)O[C@H]1C` [Compound 308, (E)-N—((S)-3-(3,5-difluorophenyl)-1-(((2R,6S,9S,11aS,17S,18S,20aS)-9-((R)-1-hydroxyethyl)-2,6,10,18-tetramethyl-5,8,11,16,20-pentaoxohexadecahydro-1H,5H,16H-dipyrrolo[2,1-c:2′,1′-l][1]oxa[4,7,10,13]tetraazacyclohexadecin-17-yl)amino)-1-oxopropan-2-yl)hept-2-enamide] ({Heptenoyl(2E)}-[Phe(3,5-F2)][aThr]P[NMeT]A[Pro(4R-Me)]; ester 2-C), for which the EC50 in assay [1] (setting [3]) was 0.28 ± 0.02 µM. The MIC in assay [2] (setting [5]) came out at 0.039 µM (≈ 0.0308 µg/mL).

For `CCCC/C=C/C(=O)N[C@@H](Cc1cc(F)cc(F)c1)C(=O)N[C@@H]1C(=O)N2C[C@H](O)C[C@H]2C(=O)N2CCOC[C@H]2C(=O)N[C@@H](C)C(=O)N2C[C@H](C)C[C@H]2C(=O)O[C@H]1C` [Compound 309, (E)-N—((S)-3-(3,5-difluorophenyl)-1-(((6aS,8R,12S,13S,15aS,17R,21S,23aS)-8-hydroxy-13,17,21-trimethyl-6,11,15,20,23-pentaoxooctadecahydro-6H,11H,15H-[1,4]oxazino[3,4-i]dipyrrolo[2,1-c:2′,1′-l][1]oxa[4,7,10,13]tetraazacyclohexadecin-12-yl)amino)-1-oxopropan-2-yl)hept-2-enamide] ({Heptenoyl(2E)}-[Phe(3,5-F2)][aThr][Hyp][Morpholine(3S-CO)]A[Pro(4R-Me)]; ester 2-C), the EC50 in assay [1] (setting [3]) came out at 0.48 ± 0.02 µM. The MIC in assay [2] (setting [5]) was found to be 0.039 µM (≈ 0.0313 µg/mL).

`C[C@@H]1C[C@H]2C(=O)O[C@@H](C)[C@H](NC(=O)[C@H](Cc3cc(F)cc(F)c3)NC(=O)Nc3ccc4c(c3)CCN4C)C(=O)N3CCC[C@H]3C(=O)N3CCCC[C@H]3C(=O)N[C@@H](C)C(=O)N2C1` [Compound 310, (S)-3-(3,5-difluorophenyl)-2-(3-(1-methylindolin-5-yl)ureido)-N-((2R,6S,8aS,14aS,20S,21S,23aS)-2,6,21-trimethyl-5,8,14,19,23-pentaoxooctadecahydro-1H,5H,14H,19H-pyrido[2,1-i]dipyrrolo[2,1-c:2′,1′-l][1]oxa[4,7,10,13]tetraazacyclo-hexadecin-20-yl)propanamide] ({NH(1-Me-indolin-5-yl)-CO}-[Phe(3,5-F2)][aThr]P[Pip]A[Pro(4R-Me)]; ester 2-C): in assay [1] (setting [3]), the EC50 amounted to 0.44 ± 0.03 µM. Besides, the MIC in assay [2] (setting [4]) turned out to be 0.313 µM (≈ 0.266 µg/mL).

As for `C[C@@H]1C[C@H]2C(=O)O[C@@H](C)[C@H](NC(=O)[C@H](Cc3cc(F)cc(F)c3)NC(=O)Nc3ccc4c(c3)CCN4C)C(=O)N3CCC[C@H]3C(=O)N(C)C([C@@H](C)O)C(=O)N[C@@H](C)C(=O)N2C1` (stereo partly drawn) [Compound 311, (S)-3-(3,5-difluorophenyl)-N-((2R,6S,9R,11aS,17S,18S,20aS)-9-((R)-1-hydroxyethyl)-2,6,10,18-tetramethyl-5,8,11,16,20-pentaoxohexadecahydro-1H,5H,16H-dipyrrolo[2,1-c:2′,1′-l][1]oxa[4,7,10,13]tetraazacyclohexadecin-17-yl)-2-(3-(1-methylindolin-5-yl)ureido)propanamide] ({NH(1-Me-indolin-5-yl)-CO}-[Phe(3,5-F2)][aThr]P[ξNMeThr]A[Pro(4R-Me)]; ester 2-C), the EC50 in assay [1] (setting [3]) was 0.54 ± 0.02 µM. Further, the MIC in assay [2] (setting [4]) came to 0.039 µM (≈ 0.0333 µg/mL).

In general, EC50 refers to the midpoint of the concentration-response curve.
